Assay: Test strip by competition with hydrolysed cefotaxime added to the sample
Assay type: binding
Details: signal equivalent to the control
Experimental: The optimisation of these two parameters was carried out for the five antibodies selected. […] In parallel, hydrolysed cefotaxime was added in order to check that the antibody is indeed specific to the non-hydrolysed form.
For all these three parameters, a colour intensity scale was used to evaluate the results obtained on the test strips. This scale was defined from 1 to 10, where each value is characteristic of an increasing signal intensity.
96-well microplates were used for all these tests. […] Then, a strip composed of a sample paper, a nitrocellulose membrane and an absorbent paper, were deposited in the wells. An incubation of 10 minutes was performed, then the signal intensity was evaluated with the colour intensity scale.
A control was produced (condition at 0 ng/ml), in order to see the maximum signal that could be obtained on the TL (Table 4).
By way of example, other antibodies have been tested. The conditions of use of the antibodies are as follows: Antibody 1, DO0.5, 0.3 mg/ml of BSA-cefotaxime; Antibody 2, DO1, 0.3 mg/ml of BSA-cefotaxime; Antibody 3, DO0.5, 0.1 mg/ml of BSA-cefotaxime; Antibody 4, DO0.5, 0.3 mg/ml of BSA-cefotaxime; Antibody 5, DO0.5, 0.3 mg/ml of BSA-cefotaxime (Table 5).

## CO/N=C(\C(=O)N[C@H](C(=O)O)C1NC(C(=O)O)=C(COC(C)=O)CS1)c1csc(N)n1 (stereo partly shown) [hydrolysed cefotaxime]
  recognition by the tracer antibody: not recognised

Source: patent publication US20240110220A1, “DETECTING BETA-LACTAMASE ENZYME ACTIVITY” (COMMISSARIAT A L'ENERGIE ATOMIQUE ET AUX ENERGIES …, priority 2021, published 2024)
